Measured values published in PMC7026418, “The kinase polypharmacology landscape of clinical PARP inhibitors” (Scientific Reports, 2020).
Like-named read-outs stand apart in the source and are kept apart here. Each block holds one compound with its values, some of them ahead of it.

What was measured:
Test in all cases: biochemical
Set-up in all cases: DiscoveRx KINOMEscan active site-directed competition binding; percent of control kinase bound to immobilised ligand
[1] = molecular target: LRRK2 (Homo sapiens, UniProt Q5S007)
[2] = molecular target: PAK6 (Homo sapiens, UniProt Q9NQU5)
PAK6, sequence (Q9NQU5 whole entry): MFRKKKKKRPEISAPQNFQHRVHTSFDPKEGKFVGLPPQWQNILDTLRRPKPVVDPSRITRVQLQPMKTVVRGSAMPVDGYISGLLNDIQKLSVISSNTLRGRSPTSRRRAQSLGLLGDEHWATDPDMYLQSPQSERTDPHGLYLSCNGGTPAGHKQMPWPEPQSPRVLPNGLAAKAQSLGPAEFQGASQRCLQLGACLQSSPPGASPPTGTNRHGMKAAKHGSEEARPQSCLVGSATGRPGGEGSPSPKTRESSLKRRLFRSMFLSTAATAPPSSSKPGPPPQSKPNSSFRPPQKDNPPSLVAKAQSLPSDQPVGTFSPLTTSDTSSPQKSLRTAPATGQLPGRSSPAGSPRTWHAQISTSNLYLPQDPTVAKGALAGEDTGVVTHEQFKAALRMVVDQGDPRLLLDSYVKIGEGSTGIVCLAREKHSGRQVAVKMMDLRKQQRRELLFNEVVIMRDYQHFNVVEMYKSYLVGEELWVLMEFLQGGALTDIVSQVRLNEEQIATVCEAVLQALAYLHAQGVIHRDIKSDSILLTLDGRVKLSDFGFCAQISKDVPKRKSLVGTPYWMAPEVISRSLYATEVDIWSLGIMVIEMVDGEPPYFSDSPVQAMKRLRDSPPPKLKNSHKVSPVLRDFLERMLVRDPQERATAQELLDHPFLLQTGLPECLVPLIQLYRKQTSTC

[3] = molecular target: ROCK1 (Homo sapiens, UniProt Q13464)
ROCK1, sequence (Q13464 whole entry): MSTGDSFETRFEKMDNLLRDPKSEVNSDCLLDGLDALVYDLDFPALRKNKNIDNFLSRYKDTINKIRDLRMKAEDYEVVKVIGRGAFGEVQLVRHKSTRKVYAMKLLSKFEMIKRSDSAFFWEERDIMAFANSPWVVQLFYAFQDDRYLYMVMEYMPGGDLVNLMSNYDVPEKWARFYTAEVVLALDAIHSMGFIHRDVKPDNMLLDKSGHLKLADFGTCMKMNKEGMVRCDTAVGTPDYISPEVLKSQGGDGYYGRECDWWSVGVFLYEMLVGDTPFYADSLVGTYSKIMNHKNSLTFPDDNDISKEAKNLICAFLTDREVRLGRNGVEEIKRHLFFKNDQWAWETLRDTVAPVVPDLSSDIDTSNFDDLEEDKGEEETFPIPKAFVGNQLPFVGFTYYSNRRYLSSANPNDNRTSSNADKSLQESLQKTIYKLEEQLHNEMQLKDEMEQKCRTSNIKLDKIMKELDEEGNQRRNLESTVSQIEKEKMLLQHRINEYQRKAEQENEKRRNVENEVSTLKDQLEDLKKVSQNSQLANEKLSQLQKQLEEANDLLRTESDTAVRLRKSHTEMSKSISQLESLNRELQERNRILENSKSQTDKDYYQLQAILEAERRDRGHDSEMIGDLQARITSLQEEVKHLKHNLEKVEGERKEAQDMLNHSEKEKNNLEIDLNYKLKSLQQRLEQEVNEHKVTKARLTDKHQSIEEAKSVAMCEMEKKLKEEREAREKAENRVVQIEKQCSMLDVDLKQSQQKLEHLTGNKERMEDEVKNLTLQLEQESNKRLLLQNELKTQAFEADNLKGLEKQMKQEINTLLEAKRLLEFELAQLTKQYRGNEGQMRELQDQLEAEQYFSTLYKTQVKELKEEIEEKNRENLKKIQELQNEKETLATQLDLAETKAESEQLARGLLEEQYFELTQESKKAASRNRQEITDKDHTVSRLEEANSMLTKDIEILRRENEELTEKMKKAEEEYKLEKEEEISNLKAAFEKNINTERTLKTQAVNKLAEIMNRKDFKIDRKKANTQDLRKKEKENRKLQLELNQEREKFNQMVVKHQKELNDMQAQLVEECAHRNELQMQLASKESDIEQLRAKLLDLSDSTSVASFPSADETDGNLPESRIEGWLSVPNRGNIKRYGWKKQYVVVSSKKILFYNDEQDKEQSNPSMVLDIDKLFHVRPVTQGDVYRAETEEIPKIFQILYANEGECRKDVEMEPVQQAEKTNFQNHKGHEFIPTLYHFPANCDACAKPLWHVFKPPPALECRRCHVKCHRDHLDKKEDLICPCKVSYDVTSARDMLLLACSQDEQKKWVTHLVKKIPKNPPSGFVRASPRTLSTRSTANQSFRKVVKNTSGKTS

[4] = molecular target: T1, NEK10 (Homo sapiens, UniProt Q6ZWH5)
T1 sequence (Q6ZWH5 1-1172): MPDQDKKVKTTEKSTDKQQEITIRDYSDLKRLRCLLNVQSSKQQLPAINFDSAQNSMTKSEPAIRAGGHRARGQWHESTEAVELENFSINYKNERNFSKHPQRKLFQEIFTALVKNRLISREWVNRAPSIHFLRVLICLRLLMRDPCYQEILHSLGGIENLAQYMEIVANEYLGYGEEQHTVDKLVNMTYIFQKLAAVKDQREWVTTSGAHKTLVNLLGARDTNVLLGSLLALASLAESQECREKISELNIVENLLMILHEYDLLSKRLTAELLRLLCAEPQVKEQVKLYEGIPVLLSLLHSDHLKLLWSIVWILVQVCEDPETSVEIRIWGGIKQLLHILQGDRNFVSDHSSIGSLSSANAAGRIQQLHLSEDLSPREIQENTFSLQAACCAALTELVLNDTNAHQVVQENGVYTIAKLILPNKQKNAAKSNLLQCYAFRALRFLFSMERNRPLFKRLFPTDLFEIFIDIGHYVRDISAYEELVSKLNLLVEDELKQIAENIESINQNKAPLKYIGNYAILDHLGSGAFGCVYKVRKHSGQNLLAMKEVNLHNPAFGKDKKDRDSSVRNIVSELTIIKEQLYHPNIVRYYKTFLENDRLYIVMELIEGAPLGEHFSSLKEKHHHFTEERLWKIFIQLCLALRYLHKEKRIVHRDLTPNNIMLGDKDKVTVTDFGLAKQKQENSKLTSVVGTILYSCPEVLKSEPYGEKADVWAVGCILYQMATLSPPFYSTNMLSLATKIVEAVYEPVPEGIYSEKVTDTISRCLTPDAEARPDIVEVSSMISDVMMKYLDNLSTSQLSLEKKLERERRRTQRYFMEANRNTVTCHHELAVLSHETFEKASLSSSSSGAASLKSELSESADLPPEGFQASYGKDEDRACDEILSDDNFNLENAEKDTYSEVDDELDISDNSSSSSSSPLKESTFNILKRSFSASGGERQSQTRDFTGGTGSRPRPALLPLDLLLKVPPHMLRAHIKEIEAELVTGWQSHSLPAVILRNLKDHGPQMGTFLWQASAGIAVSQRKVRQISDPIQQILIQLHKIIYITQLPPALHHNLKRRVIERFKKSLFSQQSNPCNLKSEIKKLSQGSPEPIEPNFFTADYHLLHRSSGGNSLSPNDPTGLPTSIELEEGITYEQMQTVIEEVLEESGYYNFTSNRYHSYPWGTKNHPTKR

[5] = molecular target: EPHA4 (Homo sapiens, UniProt P54764)
EPHA4, sequence (P54764 whole entry): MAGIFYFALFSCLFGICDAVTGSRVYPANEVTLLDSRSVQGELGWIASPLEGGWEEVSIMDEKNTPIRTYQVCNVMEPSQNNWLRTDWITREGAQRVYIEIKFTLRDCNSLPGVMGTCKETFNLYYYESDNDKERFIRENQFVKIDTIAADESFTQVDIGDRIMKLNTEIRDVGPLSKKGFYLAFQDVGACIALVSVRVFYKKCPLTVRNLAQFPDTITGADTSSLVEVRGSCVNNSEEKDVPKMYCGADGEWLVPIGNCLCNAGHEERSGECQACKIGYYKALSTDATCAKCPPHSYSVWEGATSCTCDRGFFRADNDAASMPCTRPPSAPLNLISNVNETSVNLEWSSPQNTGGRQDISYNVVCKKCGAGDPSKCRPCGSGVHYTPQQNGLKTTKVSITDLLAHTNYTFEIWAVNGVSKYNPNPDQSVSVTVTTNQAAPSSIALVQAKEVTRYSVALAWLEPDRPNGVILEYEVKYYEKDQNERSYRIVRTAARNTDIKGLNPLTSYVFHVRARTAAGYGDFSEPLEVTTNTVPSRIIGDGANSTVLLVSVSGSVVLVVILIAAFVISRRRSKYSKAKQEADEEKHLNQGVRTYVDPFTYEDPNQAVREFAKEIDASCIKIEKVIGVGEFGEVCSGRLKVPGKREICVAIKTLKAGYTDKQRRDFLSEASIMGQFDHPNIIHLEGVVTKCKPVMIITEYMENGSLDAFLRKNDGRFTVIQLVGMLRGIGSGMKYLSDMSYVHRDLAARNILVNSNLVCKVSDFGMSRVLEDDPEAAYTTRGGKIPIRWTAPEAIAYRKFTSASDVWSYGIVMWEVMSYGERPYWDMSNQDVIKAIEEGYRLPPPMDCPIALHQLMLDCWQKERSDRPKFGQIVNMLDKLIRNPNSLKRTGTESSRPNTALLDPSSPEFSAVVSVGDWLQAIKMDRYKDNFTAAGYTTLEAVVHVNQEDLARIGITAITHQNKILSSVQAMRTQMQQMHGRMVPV

[6] = molecular target: EGFR(L747-S752del, P753S) (Homo sapiens, UniProt P00533, DEL747-752/P753S)
EGFR(L747-S752del, P753S), sequence (P00533 with tags, fused parts or gaps DEL747-752/P753S): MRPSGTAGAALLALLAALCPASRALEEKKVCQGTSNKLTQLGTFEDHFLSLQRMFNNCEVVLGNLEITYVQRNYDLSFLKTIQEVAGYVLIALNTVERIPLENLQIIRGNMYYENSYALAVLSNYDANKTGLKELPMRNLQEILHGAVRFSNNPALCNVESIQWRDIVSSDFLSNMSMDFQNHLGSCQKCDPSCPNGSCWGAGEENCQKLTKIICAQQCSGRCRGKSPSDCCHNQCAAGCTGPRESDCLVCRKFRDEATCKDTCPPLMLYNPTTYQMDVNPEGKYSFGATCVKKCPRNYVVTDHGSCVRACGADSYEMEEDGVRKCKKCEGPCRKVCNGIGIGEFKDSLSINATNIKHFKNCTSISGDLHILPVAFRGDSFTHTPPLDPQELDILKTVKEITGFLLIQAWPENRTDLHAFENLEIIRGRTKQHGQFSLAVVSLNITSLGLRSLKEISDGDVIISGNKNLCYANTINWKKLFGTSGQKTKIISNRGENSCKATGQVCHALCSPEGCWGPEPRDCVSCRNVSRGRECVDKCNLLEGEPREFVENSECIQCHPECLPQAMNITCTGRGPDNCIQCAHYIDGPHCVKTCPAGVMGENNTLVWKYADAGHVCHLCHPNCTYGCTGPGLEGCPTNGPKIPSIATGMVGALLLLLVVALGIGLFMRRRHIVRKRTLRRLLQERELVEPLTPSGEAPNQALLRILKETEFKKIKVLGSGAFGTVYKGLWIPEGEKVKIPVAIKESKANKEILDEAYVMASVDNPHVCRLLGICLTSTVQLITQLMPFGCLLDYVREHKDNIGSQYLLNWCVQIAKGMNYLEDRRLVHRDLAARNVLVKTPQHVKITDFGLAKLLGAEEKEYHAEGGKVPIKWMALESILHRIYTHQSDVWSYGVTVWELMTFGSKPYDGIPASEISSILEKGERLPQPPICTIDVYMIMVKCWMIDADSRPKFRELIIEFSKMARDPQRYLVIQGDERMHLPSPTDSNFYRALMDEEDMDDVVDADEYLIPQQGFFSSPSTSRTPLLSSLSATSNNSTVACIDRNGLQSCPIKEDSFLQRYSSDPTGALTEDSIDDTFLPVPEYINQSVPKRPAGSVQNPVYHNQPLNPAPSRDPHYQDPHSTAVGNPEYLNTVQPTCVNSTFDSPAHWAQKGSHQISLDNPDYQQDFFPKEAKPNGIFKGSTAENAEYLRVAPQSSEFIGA

[7] = molecular target: FGR (Homo sapiens, UniProt P09769)
FGR, sequence (P09769 whole entry): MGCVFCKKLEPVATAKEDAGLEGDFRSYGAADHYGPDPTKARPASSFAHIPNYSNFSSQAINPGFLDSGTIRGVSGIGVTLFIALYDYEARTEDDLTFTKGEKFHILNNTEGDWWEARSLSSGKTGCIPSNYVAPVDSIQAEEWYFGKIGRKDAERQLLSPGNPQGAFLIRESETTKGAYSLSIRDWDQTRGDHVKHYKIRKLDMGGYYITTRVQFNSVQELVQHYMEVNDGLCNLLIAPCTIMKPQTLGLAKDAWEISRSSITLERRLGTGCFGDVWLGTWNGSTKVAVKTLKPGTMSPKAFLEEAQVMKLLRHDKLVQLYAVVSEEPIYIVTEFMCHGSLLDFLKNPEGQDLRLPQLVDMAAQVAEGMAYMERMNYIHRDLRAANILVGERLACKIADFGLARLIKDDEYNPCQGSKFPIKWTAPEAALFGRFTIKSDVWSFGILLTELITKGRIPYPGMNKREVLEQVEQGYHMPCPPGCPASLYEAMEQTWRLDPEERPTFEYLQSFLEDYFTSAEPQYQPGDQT

[8] = molecular target: T2, MERTK (Homo sapiens, UniProt Q12866)
T2 sequence (Q12866 1-999): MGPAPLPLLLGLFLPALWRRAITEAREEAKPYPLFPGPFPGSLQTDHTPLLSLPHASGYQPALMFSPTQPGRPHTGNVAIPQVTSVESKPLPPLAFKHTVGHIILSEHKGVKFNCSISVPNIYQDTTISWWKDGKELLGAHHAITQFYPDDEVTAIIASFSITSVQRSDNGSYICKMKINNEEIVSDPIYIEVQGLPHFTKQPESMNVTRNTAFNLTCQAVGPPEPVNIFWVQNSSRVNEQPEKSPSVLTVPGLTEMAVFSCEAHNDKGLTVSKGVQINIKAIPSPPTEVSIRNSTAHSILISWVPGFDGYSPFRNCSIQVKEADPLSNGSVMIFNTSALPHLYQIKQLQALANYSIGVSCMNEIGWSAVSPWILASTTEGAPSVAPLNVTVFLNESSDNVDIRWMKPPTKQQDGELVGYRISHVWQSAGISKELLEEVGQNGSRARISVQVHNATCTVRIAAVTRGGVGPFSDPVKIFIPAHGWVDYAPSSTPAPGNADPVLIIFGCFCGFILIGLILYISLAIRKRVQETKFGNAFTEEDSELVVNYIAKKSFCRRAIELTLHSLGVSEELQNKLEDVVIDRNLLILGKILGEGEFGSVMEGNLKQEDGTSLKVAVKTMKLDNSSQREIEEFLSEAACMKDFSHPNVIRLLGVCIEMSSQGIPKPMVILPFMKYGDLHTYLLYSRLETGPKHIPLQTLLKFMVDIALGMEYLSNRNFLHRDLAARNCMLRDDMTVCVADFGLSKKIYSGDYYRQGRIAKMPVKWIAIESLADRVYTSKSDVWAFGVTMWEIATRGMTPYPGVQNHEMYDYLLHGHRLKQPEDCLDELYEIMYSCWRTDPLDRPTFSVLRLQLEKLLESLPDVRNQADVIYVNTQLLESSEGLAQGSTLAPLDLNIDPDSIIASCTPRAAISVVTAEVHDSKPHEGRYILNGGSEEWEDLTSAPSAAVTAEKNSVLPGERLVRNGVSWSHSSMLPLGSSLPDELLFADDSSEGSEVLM

[9] = molecular target: CDK5 (Homo sapiens, UniProt Q00535)
CDK5, sequence (Q00535 whole entry): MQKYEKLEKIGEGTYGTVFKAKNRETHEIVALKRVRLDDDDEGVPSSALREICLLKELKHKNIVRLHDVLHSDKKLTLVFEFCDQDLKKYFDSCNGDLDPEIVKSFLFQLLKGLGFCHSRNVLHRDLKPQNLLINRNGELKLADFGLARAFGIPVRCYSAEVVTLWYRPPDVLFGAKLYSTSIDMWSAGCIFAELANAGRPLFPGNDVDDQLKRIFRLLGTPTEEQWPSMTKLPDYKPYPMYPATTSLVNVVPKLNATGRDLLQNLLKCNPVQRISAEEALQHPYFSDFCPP

[10] = read-out: Niraparib (MK-4827) / %Ctrl @ 10000nM
[11] = read-out: Olaparib / %Ctrl @ 10000nM
[12] = read-out: Rucaparib / %Ctrl @ 10000nM, binding competition, % of control
[13] = read-out: Talazoparib (BMN 673) / %Ctrl @ 10000nM

Compound: NC(=O)c1cccc2cn(-c3ccc([C@@H]4CCCNC4)cc3)nc12 [Niraparib]
percent of control binding at 10 µM [1, 10]: 96% | percent of control binding at 10 µM [2, 10]: 93% | percent of control binding at 10 µM [3, 10]: 61% | percent of control binding at 10 µM [4, 10]: 68% | percent of control binding at 10 µM [5, 10]: 83% | percent of control binding at 10 µM [6, 10]: 93% | percent of control binding at 10 µM [7, 10]: 85% | percent of control binding at 10 µM [8, 10]: 99% | percent of control binding at 10 µM [9, 10]: 90%

percent of control binding at 10 µM [1, 11]: 100% | percent of control binding at 10 µM [2, 11]: 87% | percent of control binding at 10 µM [3, 11]: 97% | percent of control binding at 10 µM [4, 11]: 78% | percent of control binding at 10 µM [5, 11]: 92% | percent of control binding at 10 µM [6, 11]: 100% | percent of control binding at 10 µM [7, 11]: 92% | percent of control binding at 10 µM [8, 11]: 83% | percent of control binding at 10 µM [9, 11]: 95%
Compound: O=C(c1cc(Cc2n[nH]c(=O)c3ccccc23)ccc1F)N1CCN(C(=O)C2CC2)CC1 [Olaparib]

percent of control binding at 10 µM [1, 12]: 78% | percent of control binding at 10 µM [2, 12]: 96% | percent of control binding at 10 µM [3, 12]: 85% | percent of control binding at 10 µM [4, 12]: 14% | percent of control binding at 10 µM [5, 12]: 97% | percent of control binding at 10 µM [6, 12]: 100% | percent of control binding at 10 µM [7, 12]: 96% | percent of control binding at 10 µM [8, 12]: 64% | percent of control binding at 10 µM [9, 12]: 88%
Compound: CNCc1ccc(-c2[nH]c3cc(F)cc4c3c2CCNC4=O)cc1 [Rucaparib]

percent of control binding at 10 µM [1, 13]: 100% | percent of control binding at 10 µM [2, 13]: 90% | percent of control binding at 10 µM [3, 13]: 100% | percent of control binding at 10 µM [4, 13]: 100% | percent of control binding at 10 µM [5, 13]: 100% | percent of control binding at 10 µM [6, 13]: 98% | percent of control binding at 10 µM [7, 13]: 99% | percent of control binding at 10 µM [8, 13]: 98% | percent of control binding at 10 µM [9, 13]: 98%
Compound: Cn1ncnc1[C@H]1c2n[nH]c(=O)c3cc(F)cc(c23)N[C@@H]1c1ccc(F)cc1 [Talazoparib]
